Experimental data: patent US20240284906A1, “HERBICIDAL COMPOSITIONS CONTAINING CINMETHYLINE AND ETHOFUMESATE” (BAYER AKTIENGESELLSCHAFT, priority 2021, published 2024)

Key:
[1] = test system: Veronica persica; assay: Pre-emergence weed control, pot trial; assay type: in vivo; details: pre-emergence (BBCH 00), 27 DAA, scale 0-100
Method: (§1) The following plant species were selected for the tests:
(§2) The seeds of the abovementioned biotypes were sown in 8 cm pots (LSI; pH 7.4; % C org 2.2). The temperature was kept at about 23°/15° C. day/night. After the herbicides had been applied (300 l water/ha), the pots were irrigated from beneath as required. Two trials were conducted. In a pre-emergence trial, the herbicides were applied directly after sowing at the BBCH 00 growth stage. In a post-emergence trial, the herbicides were deployed at the BBCH 11-12 growth stage.
(§3) The active herbicidal ingredient cinmethylin was used as commercial emulsifiable concentrate (EC) LUMIMAX. Ethofumesate was used in the form of the commercial suspension concentrate (SC) Nortron. A methylated seed oil (Mero) was added to the spray liquids in an amount of 1 l/ha in order to assure good retention characteristics.
(§4) The percentage of weed control (2 repetitions) was rated 27 days after the application of herbicide (DAA) on a scale of 0-100. A rating of 0 means no control, and 100 means complete control.
(§5) According to Colby, synergistic effects of active herbicidal ingredients are indicated when the measured efficacy is higher than that expected, which is calculated by its formula for 2-substance mixtures: EC=A+B−(A×B)/100

[2] = test system: Avena fatua; assay: Pre-emergence weed control, pot trial; assay type: in vivo; details: pre-emergence (BBCH 00), 27 DAA, scale 0-100
Method: as §1, §2, §3, §4, §5

[3] = test system: MATIN; assay: Pre-emergence weed control, pot trial; assay type: in vivo, Matricaria inodora; details: pre-emergence (BBCH 00), 27 DAA, scale 0-100
Method: as §1, §2, §3, §4, §5

[4] = test system: MATIN; assay: Post-emergence weed control, pot trial; assay type: in vivo, Matricaria inodora; details: post-emergence (BBCH 11-12), 27 DAA, scale 0-100
Method: as §1, §2, §3, §4, §5

[5] = test system: Lolium rigidum; assay: Post-emergence weed control, pot trial; assay type: in vivo; details: post-emergence (BBCH 11-12), 27 DAA, scale 0-100
Method: as §1, §2, §3, §4, §5

[6] = test system: Abuthilon theophrasti; assay: Post-emergence weed control, pot trial; assay type: in vivo; details: post-emergence (BBCH 11-12), 27 DAA, scale 0-100
Method: as §1, §2, §3, §4, §5

[7] = test system: Alopecurus myosuroides; assay: Post-emergence weed control, pot trial; assay type: in vivo; details: post-emergence (BBCH 11-12), 27 DAA, scale 0-100
Method: as §1, §2, §3, §4, §5

| Structure (SMILES) | Efficacy (percentage of weed control) VERPE ([1]; 10 g ai/ha) | Efficacy (percentage of weed control) AVEFA ([2]; 20 g ai/ha) | Efficacy (percentage of weed control) MATIN ([3]; 10 g ai/ha) | Efficacy (percentage of weed control) MATIN ([4]; 50 g ai/ha) | Efficacy (percentage of weed control) LOLRI ([5]; 20 g ai/ha) | Efficacy (percentage of weed control) ABUTH ([6]; 20 g ai/ha) | Efficacy (percentage of weed control) ALOMY ([7]; 20 g ai/ha) | Efficacy (percentage of weed control) VERPE ([1]; 50 g ai/ha) | Efficacy (percentage of weed control) AVEFA ([2]; 100 g ai/ha) | Efficacy (percentage of weed control) MATIN ([3]; 50 g ai/ha) | Efficacy (percentage of weed control) MATIN ([4]; 25 g ai/ha) | Efficacy (percentage of weed control) LOLRI ([5]; 100 g ai/ha) | Efficacy (percentage of weed control) ABUTH ([6]; 100 g ai/ha) | Efficacy (percentage of weed control) ALOMY ([7]; 100 g ai/ha) |
| --- | --- | --- | --- | --- | --- | --- | --- | --- | --- | --- | --- | --- | --- | --- |
| CCOC1Oc2ccc(OS(C)(=O)=O)cc2C1(C)C (centres unmarked) [Ethofumesate] | 0% | 0% | 0% | 10% | 0% | 0% | 0% |  |  |  |  |  |  |  |
| Cc1ccccc1CO[C@@H]1C[C@]2(C(C)C)CC[C@@]1(C)O2 (racemic) [Cinmethylin, (+/−)-2-exo-(2-methylbenzyloxy)-1-methyl-4-isopropyl-7-oxabicyclo[2.2.1]heptane] |  |  |  |  |  |  |  | 20% | 70% | 70% | 20% | 63% | 35% | 78% |
